From PMC6155162, “Identification of mesothelioma-specific sialylated epitope recognized with monoclonal antibody SKM9-2 in a mucin-like membrane protein HEG1” (Scientific Reports, 2018) come the findings set out here.

Experiment [1] addresses SKM9-2. The experiment is described as follows: SPR analysis of binding between SKM9-2 and soluble His-tagged minimum epitope peptides (SKMepmin). The conditions noted are these: for Kd: His-tagged SKMepmin secreted from transfected HEK293T immobilized on Ni2+-binding sensor chip NTA, analyte 5 µg/mL SKM9-2, running buffer 10 mM HEPES pH 8.1, 150 mM NaCl, 0.005% Tween-20, 50 µM EDTA, read-out: KD (M), dissociation constant; for affinity of SKM9-2 in contrast to SKMepmin3 (in words): analyte 5 µg/mL SKM9-2, ligand on sensor chip NTA; for dissociation rate between SKM9-2 and epitope peptide (in words) / association rate between SKM9-2 and epitope peptide (in words): analyte 5 µg/mL SKM9-2, change caused by the substitution. The method, then:
Figure 5 SPR analysis of the binding kinetics between SKM9-2 and mutants of minimum epitope. A soluble His-tagged mutant of minimum epitope (SKMepmin) was secreted from transfected HEK293T and immobilized as a ligand on the Ni^2+-binding sensor chip NTA. The upper sensorgrams show the binding kinetics of analyte (5 µg/mL of SKM9-2) to SKMepmins. The control without any peptide is shown as “No peptide” and the negative control peptide cycle is shown as “Control peptide”. The glycan-digested SKMepmin3 that was treated with Neuraminidase A and O-Glycosidase was used as the negative control peptide. The dissociation constant in the lower bar graph was calculated using the manufacturer’s instructions. RU, response units; Signal sequence, the artificial signal sequence (MAPLLLLLLPLLLLPPAAP).
Figure 7 SPR analysis of bindings of lectin and SKM9-2 to glycosidase-treated SKMepmin3. Purified SKMepmin3 was incubated with α2-3 Neuraminidase S, Neuraminidase A, or Neuraminidase A + O-Glycosidase; and then was immobilized as a ligand on Ni^2+-binding sensor chip NTA. The analytes were used at a concentration of 5 µg/mL. (a) ABA, (b) Jacalin, (c) rACG, (d) SKM9-2. Glycosidase-digested sample was not tested in the experiment with rACG.
Cell lysate or SKMepmin3 was treated with α2-3 Neuraminidase S, α2-3, 6, 8, 9 Neuraminidase A, and O-Glycosidase (New England Biolabs Japan, Tokyo, Japan) in 50 mM sodium phosphate (pH 7.5) containing 1% Nonidet P-40, according to the manufacturer’s instructions. The cell lysate sample was resolved by 4–15% or 6% SDS-PAGE under reducing conditions and detected by western blotting using SKM9-2. The analysis of the SKMepmin3 sample was performed by SPR.
The binding of SKM9-2 or lectin to SKMepmin was measured by SPR analysis. SKMepmin was diluted with a running buffer (10 mM HEPES buffer (pH 8.1) containing 150 mM NaCl and 0.005% Tween-20), flowed on Ni^2+-binding sensor chip NTA (GE Healthcare), and affinity-bound through His-tag as a ligand on the sensor chip. Binding analysis of SKM9-2 was performed in a running buffer containing 50 µM EDTA. A non-treated flow cell was used as a reference cell. SKM9-2, anti-sialyl Lewis^X (CSLEX1, Becton, Dickinson and Company Japan, Tokyo, Japan), rACG (Wako Pure Chemical Industries), biotinylated ABA (J-Oil Mills, Inc., Tokyo, Japan), or biotinylated Jacalin (Vector Laboratories, Inc., Burlingame, CA, USA) (each 5 µg/mL) was injected as an analyte with the running buffer. As a regeneration buffer, 350 mM EDTA was used. The dissociation constant was calculated using the manufacturer’s instructions.

In experiment [2] the test system is SKM9-2. In words: Western blotting using SKM9-2 of HEG1 truncated mutants and epitope-fused GPI-anchor proteins. The class given is binding. The conditions noted are these: cell lysates of transfected HEK293T, SDS-PAGE under reducing conditions, 1 µg/mL SKM9-2. An excerpt: Figure 1 SKM9-2 binding to truncated mutants of HEG1. Schematics of full-length HEG1 (Full) and the truncated mutants are indicated on the left side and the results of western blotting using SKM9-2 are shown on the right side. Truncated amino acid position, which is based on a full-length variant of HEG1 containing exon 6, is shown as a number in the schematic of domain structure. The region of the SKM9-2 epitope is shown as a red square. […] SLURP GPI-anchor protein[18] was used as a fused GPI-anchor protein (violet square). The terminal sequences of the HEG1 peptide are shown in the western blot lane. The samples were resolved by 6% SDS-PAGE (a and b) or 4–15% SDS-PAGE (c) under reducing conditions and were detected by western blotting using SKM9-2. Cyt, cytoplasmic domain; EGFs, EGF related domains; Ser/Thr, serine/threonine rich region; SLURP, secreted lymphocyte antigen-6/urokinase-type plasminogen activator receptor-related peptide; SP, signal peptide; TM, transmembrane domain. Full-length blots are presented in Supplementary Fig. S7.
Figure 2 Epitope mapping of SKM9-2. Schematic of epitope peptides (left side) and western blots resolved by 4–15% SDS-PAGE (right side) are shown. The HEG1 peptide sequences are indicated in the western blot lane. Each epitope peptide was fused with a signal peptide (dashed line square) and a SLURP GPI-anchor protein (violet square). Full-length blots are presented in Supplementary Fig. S8.
Figure 3 Alanine scanning of SKM9-2 epitope. […] Cell lysates of transfected HEK293T (upper panel) or transfected ACC-MESO1 (lower panel) were resolved by 4–15% SDS-PAGE and analyzed by western blotting using SKM9-2. (b) S897A mutant of FLAG-tagged HEG1 in HEK293T was resolved by 4–15% SDS-PAGE and analyzed by western blotting using SKM9-2 (upper panel) or anti-FLAG mAb (lower panel). Native HEG1 in ACC-MESO4 and FLAG-tagged HEG1 without mutation in HEK293T were used as controls. Full-length blots are presented in Supplementary Fig. S9.
Sequences of tested HEG1 are shown in Supplementary Dataset. Full-length HEG1 cDNA was synthesized from total RNA purified with TRIzol reagent (Thermo Fisher Scientific) from ACC-MESO-4, using an oligo dT primer and SuperScript II RNase H reverse transcriptase (Thermo Fisher Scientific). cDNA encoding the HEG1 open reading frame was amplified by PCR using PrimeSTAR HS DNA Polymerase (Takara Bio Inc., Shiga, Japan). The HEG1 cDNA was cloned and inserted into the pcDNA3.1(−) mammalian expression vector (Thermo Fisher Scientific). For analyses of N-terminal truncation, we inserted mutants into pFLAG-CMV1 (Sigma-Aldrich Japan K.K., Tokyo, Japan). For analyses of C-terminal deletion lacking the transmembrane domain, we used mutants that were fused with a GPI-anchor protein, SLURP1-gpi[18], in pcDNA3.1(+) (Thermo Fisher Scientific) (Supplementary Dataset). Alanine substituted mutants were prepared using site directed mutagenesis. To produce a soluble epitope peptide, a modified HEG1 signal peptide and a C-terminal tag containing the FLAG tag plus a polyhistidine sequence were used in the mammalian expression vector pEF-BOS[39] (Supplementary Dataset). The plasmid constructs were transfected with Lipofectamine 3000 (Thermo Fisher Scientific). The HEG1 peptide-expressing 293 H clone was obtained by selection with geneticin (Thermo Fisher Scientific).
Monolayer cells were solubilized with 20 mM Tris buffer (pH 8.0) containing 1% SDS, 1 mM phenylmethylsulfonyl fluoride, 125 mU/mL Benzonase Nuclease (Merck Millipore Co., Tokyo, Japan) (25 µL/cm^2 culture surface area). The lysate (10 µL/lane) was resolved by SDS-PAGE under reducing conditions using 6% polyacrylamide gels or 4–15% precast gels (Bio-Rad Laboratories Inc., Hercules, CA, USA). […]
(In general: Immunoblotting shows a protein as a band on a membrane.)

As to “MAPLLLLLLPLLLLPPAAPGGSKAPTLVSLPAGGDYKDDDDKHHHHHHHH [SKMepmin7]”, on SKM9-2 [1], the dissociation constant (Kd) came to 6.17e-08 M and the “affinity of SKM9-2 in contrast to SKMepmin3 (in words)” value (from here on “affinity of SKM9-2 in contrast”) was “further reduced”. Turning to “7.627: 887-EKVITESKSPSLVS-900 -SLURP GPI”, the “recognition by SKM9-2 upon western blot analysis” value (“recognition” below) in the experiment with SKM9-2 [2] was “not bound”.

As for “MAPLLLLLLPLLLLPPAAPGGSKAPSLVALPAGGDYKDDDDKHHHHHHHH [SKMepmin8]”, at SKM9-2 [1], the dissociation constant Kd came out at 3.25e-08 M; the “dissociation rate between SKM9-2 and epitope peptide (in words)” value is “increased”; the “affinity of SKM9-2 in contrast” value is “decreased”.

As to “MAPLLLLLLPLLLLPPAAPGGSKAPALVSLPAGGDYKDDDDKHHHHHHHH [SKMepmin6]”, on SKM9-2 [1], the equilibrium dissociation constant (Kd) is 4.2e-08 M; the “dissociation rate between SKM9-2 and epitope peptide (in words)” value was “increased”; the “affinity of SKM9-2 in contrast” value is on record as “decreased”. “7.626: 887-EKVITESKSPSLVSLP-902 -SLURP GPI”: the “recognition” value with SKM9-2 [2] is given as “weakly recognized”.

For “MAPLLLLLLPLLLLPPAAPGGSKAPSLVSLPTGGDYKDDDDKHHHHHHHH [SKMepmin2]”, at SKM9-2 [1], the equilibrium dissociation constant (Kd) worked out at 6.22e-09 M; the “association rate between SKM9-2 and epitope peptide (in words)” value was “increased”. With “MAPLLLLLLPLLLLPPAAPGGTKAPSLVSLPAGGDYKDDDDKHHHHHHHH [SKMepmin5]”, on SKM9-2 [1], the dissociation constant Kd stood at 2.9e-09 M; the “association rate between SKM9-2 and epitope peptide (in words)” value is recorded as “hardly influenced”; the “dissociation rate between SKM9-2 and epitope peptide (in words)” value was “hardly influenced”; the “affinity of SKM9-2 in contrast” value is reported as “restored”.

Regarding “7.62: 887-EKVITESKSPSLVSLPTEST-906 -SLURP GPI”, the “recognition” value in the experiment on SKM9-2 [2] is listed as “clearly detected”. Take “MAPLLLLLLPLLLLPPAAPGGSKSPSLVSLPTGGDYKDDDDKHHHHHHHH [SKMepmin1]”: the Kd on SKM9-2 [1] is 8.75e-09 M. Consider “MAPLLLLLLPLLLLPPAAPGGAKAPSLVSLPAGGDYKDDDDKHHHHHHHH [SKMepmin4]”, for which, at SKM9-2 [1], the dissociation constant (Kd) amounted to 1.15e-08 M; the “association rate between SKM9-2 and epitope peptide (in words)” value is “decreased”; the “affinity of SKM9-2 in contrast” value is given as “decreased”. As for “MAPLLLLLLPLLLLPPAAPGGSKAPSLVTLPAGGDYKDDDDKHHHHHHHH [SKMepmin9]”, at SKM9-2 [1], the Kd worked out at 6.38e-09 M; the “dissociation rate between SKM9-2 and epitope peptide (in words)” value is “increased”; the “affinity of SKM9-2 in contrast” value is on record as “restored”.

B1: 2.2 kb: FLAG-tagged N-terminal deletion mutant hHEG1 (712-1481) (protein)
chain: MSALLILALVGAAVADYKDDDDKLAAANSSIDLSSYDGEYAQPSTESPVLHTSNLPSYTPTINMPNTSVVLDTDAEFVSDSSSSSSSSSSSSSSSSSSSSGPPLPLPSVSQSHHLFSSILPSTRASVHLLKSTSDASTPWSSSPSPLPVSLTTSTSAPLSVSQTTLPQSSSTPVLPRARETPVTSFQTSTMTSFMTMLHSSQTADLKSQSTPHQEKVITESKSPSLVSLPTESTKAVTTNSPLPPSLTESSTEQTLPATSTNLAQMSPTFTTTILKTSQPLMTTPGTLSSTASLVTGPIAVQTTAGKQLSLTHPEILVPQISTEGGISTERNRVIVDATSGLIPLTSVPTSAKEMTTKLGVTAEYSPASRSLGTSPSPQTTVVSTAEDLAPKSATFAVQSSTQSPTTLSSSASVNSCAVNPCLHNGECVADNTSRGYHCRCPPSWQGDDCSVDVNECLSNPCPSTAMCNNTQGSFICKCPVGYQLEKGICNLVRTFVTEF
For B1, in the experiment with SKM9-2 [2], the “recognition” value is “recognized”.

B2: 3 kb: FLAG-tagged N-terminal deletion mutant hHEG1 (285-1481) (protein)
chain: MSALLILALVGAAVADYKDDDDKLAAANSSIDLSWLHFYRTAASSPLLDLSSSSESTEKLNNSTGLQSSSVSQTKTMHVATVFTDGGPRTLRSLTVSLGPVSKTEGFPKDSRIATTSSSVLLSPSAVESRRNSRVTGNPGDEEFIEPSTENEFGLTSLRWQNDSPTFGEHQLASSSEVQNGSPMSQTETVSRSVAPMRGGEITAHWLLTNSTTSADVTGSSASYPEGVNASVLTQFSDSTVQSGGSHTALGDRSYSESSSTSSSESLNSSAPRGERSIAGISYGQVRGTAIEQRTSSDHTDHTYLSSTFTKGERALLSITDNSSSSDIVESSTSYIKISNSSHSEYSSFFHAQTERSNISSYDGEYAQPSTESPVLHTSNLPSYTPTINMPNTSVVLDTDAEFVSDSSSSSSSSSSSSSSSSSSSSGPPLPLPSVSQSHHLFSSILPSTRASVHLLKSTSDASTPWSSSPSPLPVSLTTSTSAPLSVSQTTLPQSSSTPV
B2: the “recognition” value in the experiment with SKM9-2 [2] is reported as “recognized”.

B3: 2 kb: FLAG-tagged N-terminal deletion mutant hHEG1 (771-1481) (protein)
chain: MSALLILALVGAAVADYKDDDDKLAAANSSIDLSSGPPLPLPSVSQSHHLFSSILPSTRASVHLLKSTSDASTPWSSSPSPLPVSLTTSTSAPLSVSQTTLPQSSSTPVLPRARETPVTSFQTSTMTSFMTMLHSSQTADLKSQSTPHQEKVITESKSPSLVSLPTESTKAVTTNSPLPPSLTESSTEQTLPATSTNLAQMSPTFTTTILKTSQPLMTTPGTLSSTASLVTGPIAVQTTAGKQLSLTHPEILVPQISTEGGISTERNRVIVDATSGLIPLTSVPTSAKEMTTKLGVTAEYSPASRSLGTSPSPQTTVVSTAEDLAPKSATFAVQSSTQSPTTLSSSASVNSCAVNPCLHNGECVADNTSRGYHCRCPPSWQGDDCSVDVNECLSNPCPSTAMCNNTQGSFICKCPVGYQLEKGICNLVRTFVTEFKLKRTFLNTTVEKHSDLQEVENEITKTLNMCFSALPSYIRSTVHASRESNAVVISLQTTFSLASN
B3: in the experiment on SKM9-2 [2], the “recognition” value was “recognized”.

One may read the Kd as the equilibrium constant for the complex coming apart.
